From ChEMBL document CHEMBL1909046, “DrugMatrix in vitro pharmacology data”

What was measured:
[1] = DRUGMATRIX: Glutamate, NMDA, Agonism radioligand binding (ligand: [3H] CGP-39653); format: cell membranes, Rattus norvegicus, Wistar, Cerebral cortex, Membrane; conditions: Not Active = under 50% inhibition at 10 µM
[2] = biological target: Platelet-activating factor receptor (Homo sapiens, UniProt P25105); format: tissue-based; further: in other assays of this panel Not Active means under 50% inhibition at 10 µM
Sequence of Platelet-activating factor receptor (P25105 whole entry): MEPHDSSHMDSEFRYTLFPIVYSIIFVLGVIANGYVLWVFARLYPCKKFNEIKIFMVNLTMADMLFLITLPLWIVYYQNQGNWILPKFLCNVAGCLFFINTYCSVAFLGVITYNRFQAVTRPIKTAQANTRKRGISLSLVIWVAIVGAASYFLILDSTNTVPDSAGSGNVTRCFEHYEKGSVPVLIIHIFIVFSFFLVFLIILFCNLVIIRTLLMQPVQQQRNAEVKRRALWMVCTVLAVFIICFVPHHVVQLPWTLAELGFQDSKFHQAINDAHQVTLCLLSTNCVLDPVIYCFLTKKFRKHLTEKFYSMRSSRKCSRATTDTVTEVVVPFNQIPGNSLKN

Cytochrome P450 2C19 = Cytochrome P450 2C19 (Homo sapiens, UniProt P33261); further: in other assays of this panel Not Active means under 50% inhibition at 10 µM
Sequence of Cytochrome P450 2C19 (P33261 whole entry): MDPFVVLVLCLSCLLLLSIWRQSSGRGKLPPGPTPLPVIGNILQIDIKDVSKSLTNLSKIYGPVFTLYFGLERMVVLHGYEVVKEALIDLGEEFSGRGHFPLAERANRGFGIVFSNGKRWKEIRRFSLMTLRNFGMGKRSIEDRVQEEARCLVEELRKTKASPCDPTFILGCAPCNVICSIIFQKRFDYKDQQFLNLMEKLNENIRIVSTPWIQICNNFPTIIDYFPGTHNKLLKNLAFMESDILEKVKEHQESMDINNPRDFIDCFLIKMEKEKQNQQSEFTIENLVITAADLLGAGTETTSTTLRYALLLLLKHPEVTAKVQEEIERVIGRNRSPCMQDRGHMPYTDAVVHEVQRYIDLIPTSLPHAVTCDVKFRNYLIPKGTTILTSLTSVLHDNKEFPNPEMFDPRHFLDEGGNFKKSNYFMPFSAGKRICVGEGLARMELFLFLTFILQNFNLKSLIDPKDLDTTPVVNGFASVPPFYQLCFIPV

Glucocorticoid receptor [3] = biological target: T1, Glucocorticoid receptor (Homo sapiens, UniProt P04150); test: biochemical; further: in other assays of this panel Not Active means under 50% inhibition at 10 µM
T1 sequence (P04150 whole entry): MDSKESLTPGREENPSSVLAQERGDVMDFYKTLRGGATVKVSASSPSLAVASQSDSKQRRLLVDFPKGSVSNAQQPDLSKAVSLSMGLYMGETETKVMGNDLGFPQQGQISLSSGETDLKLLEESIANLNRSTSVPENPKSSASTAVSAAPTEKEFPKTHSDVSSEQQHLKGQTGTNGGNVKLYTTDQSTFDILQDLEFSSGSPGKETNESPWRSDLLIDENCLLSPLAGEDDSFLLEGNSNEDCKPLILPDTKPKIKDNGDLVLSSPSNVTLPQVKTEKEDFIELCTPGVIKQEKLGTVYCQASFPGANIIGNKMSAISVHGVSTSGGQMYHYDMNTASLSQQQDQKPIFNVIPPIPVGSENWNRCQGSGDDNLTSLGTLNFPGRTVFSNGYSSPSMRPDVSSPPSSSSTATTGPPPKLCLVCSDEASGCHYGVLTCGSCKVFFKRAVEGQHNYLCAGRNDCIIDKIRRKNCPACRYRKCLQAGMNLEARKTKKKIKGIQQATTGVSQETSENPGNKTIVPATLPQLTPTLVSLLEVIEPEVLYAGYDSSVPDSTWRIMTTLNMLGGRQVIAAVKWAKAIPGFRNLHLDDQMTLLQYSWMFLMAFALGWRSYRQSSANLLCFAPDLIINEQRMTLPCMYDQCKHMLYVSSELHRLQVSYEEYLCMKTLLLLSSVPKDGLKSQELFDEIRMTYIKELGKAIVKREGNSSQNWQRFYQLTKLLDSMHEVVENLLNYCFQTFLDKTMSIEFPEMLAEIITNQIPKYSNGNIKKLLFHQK

Cytochrome P450 2C9 = Cytochrome P450 2C9 (Homo sapiens, UniProt P11712); further: in other assays of this panel Not Active means under 50% inhibition at 10 µM
Sequence of Cytochrome P450 2C9 (P11712 whole entry): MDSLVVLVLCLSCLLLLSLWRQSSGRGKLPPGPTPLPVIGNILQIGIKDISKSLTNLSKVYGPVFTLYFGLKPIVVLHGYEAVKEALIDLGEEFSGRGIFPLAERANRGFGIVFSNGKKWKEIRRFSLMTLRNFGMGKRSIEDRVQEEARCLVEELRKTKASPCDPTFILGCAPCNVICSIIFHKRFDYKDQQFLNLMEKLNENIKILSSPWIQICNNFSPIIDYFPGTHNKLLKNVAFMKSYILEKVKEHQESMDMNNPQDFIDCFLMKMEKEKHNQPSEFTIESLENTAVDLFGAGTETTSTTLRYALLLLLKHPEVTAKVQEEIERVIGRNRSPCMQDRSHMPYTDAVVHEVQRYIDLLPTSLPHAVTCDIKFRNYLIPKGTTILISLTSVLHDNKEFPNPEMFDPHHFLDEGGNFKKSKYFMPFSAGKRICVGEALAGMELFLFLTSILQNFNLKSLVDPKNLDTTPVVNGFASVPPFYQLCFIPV

Androgen receptor [4] = biological target: T2, Androgen receptor (Rattus norvegicus, UniProt P15207); further: in other assays of this panel Not Active means under 50% inhibition at 10 µM
T2 sequence (P15207 whole entry): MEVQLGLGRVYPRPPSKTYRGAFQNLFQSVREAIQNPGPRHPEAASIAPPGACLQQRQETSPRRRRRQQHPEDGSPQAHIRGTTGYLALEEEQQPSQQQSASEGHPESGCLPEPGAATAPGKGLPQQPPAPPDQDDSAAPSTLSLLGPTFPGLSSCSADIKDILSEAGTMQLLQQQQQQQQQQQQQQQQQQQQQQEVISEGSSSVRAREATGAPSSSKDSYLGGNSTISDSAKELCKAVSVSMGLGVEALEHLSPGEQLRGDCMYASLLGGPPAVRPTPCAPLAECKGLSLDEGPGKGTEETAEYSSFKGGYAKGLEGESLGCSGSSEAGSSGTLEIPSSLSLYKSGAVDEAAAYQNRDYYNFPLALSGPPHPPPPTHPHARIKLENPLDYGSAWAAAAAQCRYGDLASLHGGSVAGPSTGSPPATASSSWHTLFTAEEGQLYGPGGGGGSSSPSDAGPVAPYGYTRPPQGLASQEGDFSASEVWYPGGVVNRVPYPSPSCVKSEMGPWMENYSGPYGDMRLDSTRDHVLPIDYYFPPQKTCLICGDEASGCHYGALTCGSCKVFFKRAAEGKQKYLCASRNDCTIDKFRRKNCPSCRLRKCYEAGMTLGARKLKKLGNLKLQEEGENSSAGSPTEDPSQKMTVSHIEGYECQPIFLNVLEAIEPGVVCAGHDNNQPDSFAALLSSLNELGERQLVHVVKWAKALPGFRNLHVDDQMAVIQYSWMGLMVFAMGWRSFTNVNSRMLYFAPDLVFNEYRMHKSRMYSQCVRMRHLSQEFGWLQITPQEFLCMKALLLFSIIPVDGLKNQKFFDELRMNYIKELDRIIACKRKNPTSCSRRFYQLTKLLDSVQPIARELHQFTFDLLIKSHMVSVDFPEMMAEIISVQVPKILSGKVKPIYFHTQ

Glucocorticoid receptor [5] = biological target: T1, Glucocorticoid receptor; conditions: hela s3
Cytochrome P450 1A2 = biological target: T3, Cytochrome P450 1A2 (Homo sapiens, UniProt P05177); further: in other assays of this panel Not Active means under 50% inhibition at 10 µM
T3 sequence (P05177 whole entry): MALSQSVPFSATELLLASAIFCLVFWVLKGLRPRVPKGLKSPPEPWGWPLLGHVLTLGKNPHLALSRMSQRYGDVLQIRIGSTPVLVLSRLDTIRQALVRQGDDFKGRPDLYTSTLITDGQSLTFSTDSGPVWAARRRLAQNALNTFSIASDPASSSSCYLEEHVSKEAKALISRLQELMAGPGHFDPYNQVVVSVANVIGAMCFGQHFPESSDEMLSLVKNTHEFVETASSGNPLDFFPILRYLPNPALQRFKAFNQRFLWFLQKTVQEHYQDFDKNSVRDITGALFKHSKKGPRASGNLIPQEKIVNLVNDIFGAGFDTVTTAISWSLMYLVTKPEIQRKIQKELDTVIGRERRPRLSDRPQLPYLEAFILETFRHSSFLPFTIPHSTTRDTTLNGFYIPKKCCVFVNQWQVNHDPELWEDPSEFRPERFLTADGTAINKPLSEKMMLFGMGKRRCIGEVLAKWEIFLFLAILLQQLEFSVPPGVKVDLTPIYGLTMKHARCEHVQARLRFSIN

Androgen receptor [6] = biological target: T2, Androgen receptor; remark: listed apart in the source

C#C[C@]1(OC(C)=O)CC[C@H]2[C@@H]3CCC4=CC(=O)CC[C@@H]4[C@H]3CC[C@@]21C [NORETHINDRONE ACETATE]
IC50 [1]: Not Active | Ki [1]: Not Active | IC50 [2]: Not Active | IC50 (Cytochrome P450 2C19): 0.8 µM | IC50 (Glucocorticoid receptor [3]): 0.646 µM | Ki (Glucocorticoid receptor [3]): 0.293 µM

Cc1ccccc1C(=O)N1CCC(Cc2ccccc2)CC1
IC50 [1]: Not Active | Ki [1]: Not Active | IC50 [2]: Not Active | IC50 (Cytochrome P450 2C19): 0.6 µM | IC50 (Cytochrome P450 2C9): 1 µM | IC50 (Androgen receptor [4]): Not Active | IC50 (Glucocorticoid receptor [5]): Not Active

C[C@](O)(CS(=O)(=O)c1ccc(F)cc1)C(=O)Nc1ccc(C#N)c(C(F)(F)F)c1 [(R)-BICALUTAMIDE]
IC50 [1]: Not Active | Ki [1]: Not Active | IC50 [2]: Not Active | IC50 (Cytochrome P450 2C19): 1 µM | IC50 (Glucocorticoid receptor [5]): Not Active

CC(=O)Nc1cccc(O)c1 [METACETAMOL]
IC50 [1]: Not Active | Ki [1]: Not Active | IC50 [2]: Not Active | IC50 (Cytochrome P450 1A2): 2 µM

S=C=Nc1cccc2ccccc12 [1-NAPHTHYLISOTHIOCYANATE]
IC50 [1]: Not Active | Ki [1]: Not Active | IC50 [2]: Not Active | IC50 (Androgen receptor [6]): 25.5 µM | Ki (Androgen receptor [6]): 17 µM | IC50 (Cytochrome P450 1A2): 1 µM | IC50 (Glucocorticoid receptor [3]): 15.4 µM | Ki (Glucocorticoid receptor [3]): 7 µM

CCOC(=O)C1=C(C)NC(C)=C(C(=O)OC)C1c1cccc([N+](=O)[O-])c1 (configuration not stated) [NITRENDIPINE]
IC50 [1]: Not Active | Ki [1]: Not Active | IC50 [2]: Not Active | IC50 (Cytochrome P450 2C19): 3 µM | IC50 (Cytochrome P450 2C9): 0.3 µM

COc1ccccc1C(=O)N1CCC(Cc2ccccc2)CC1
IC50 [1]: Not Active | Ki [1]: Not Active | IC50 [2]: Not Active | IC50 (Cytochrome P450 2C19): 0.8 µM | IC50 (Cytochrome P450 2C9): 2 µM | IC50 (Androgen receptor [4]): Not Active | IC50 (Glucocorticoid receptor [5]): Not Active
